Laboratory results published in US5712251A, “Treatment method” (Roussel Uclaf, priority 1979, dated 1998).

Legend:
[1] = system: testicular steroidogensis; assay: Inhibitory activity against testicular steroidogenesis in men in good health, single intranasal dose (Example 1); assay type: in vivo; settings: for level of testosterone/steroids on the fourth day after administration: single intranasal dose of 500 μg, fourth day (until 6th day)
Experimental: The inhibitory activity of D Ser (Tbu)^6 or Gly^10 LH-RH ethylamide (described in German application Ser. No. 2,438,350) against testicular steroidogensis in men in good health was determined on men in good health aged 30 to 40 years. The said product was administered intranasally at a dose of 500 μg in a few drops of distilled water at 8 A.M. on the third day of the test. For 2 days prior to the treatment and for 6 days after the treatment, samples of blood were taken daily at 8 A.M., 3 P.M. and 10 P.M. On the day of administration of the LH-RH agonist, blood samples were taken at 11 A.M. and 6 P.M.
The seric concentrations of LH and FSH were measured by radioimmuno-logic dosages with double antibodies and the antibodies for measuring LH and FSH were furnished by the National Pituitary Agency of N.I.H. in Bethesda, Md. The seric concentrations of steroids was measured by radioimmuno-logic dosages in which one ml of serum was extracted with ether and the steroids were separated on a LH-20 column before measuring with radioimmuno-logic dosages. The radioimmuno-logic dosage results were determined by a program derived from model II of Rodbard et al [Second Karolinska Symposium on Research Methods in Reproductive Endocrinology, Diezfalusky Editer, Copenhague (1970), p. 79-103]. The statistical significance was determined by the "multiple level test" of Duncan-Kramer [Kramer, Biometrics, Vol 12 (1956), p. 307]. The results are shown in the graphs on sheet 1 of the Figures filed herewith.

ovarian steroidogenosis = assay: Inhibitory activity on ovarian steroidogenesis in women (Example 3); assay type: in vivo
Experimental: The study was conducted for 6 consecutive cycles consisting of 2 pretreatment cycles, 2 treatment cycles and 2 post-treatment cycles. […] Daily blood samples were taken between 4 and 6 P.M. to measure seric levels of LH, FSH, progesterone and estradiol which were determined by radioimmuno-logic tests with double antibodies. The antibodies to measure LH and FSH were furnished by the National Pituitary Agency of N.I.H. of Bethesda, Md.
Estradiol and progesterone were measured with highly specific antibodies developed against 7-(O-carboxymethyl)-oxime of estradiol and 12-(O-carboxymethyl)-oxime of progesterone, respectively [3H] 17β-estradiol and ^125 I-progesterone-12-[O-carboxymethyl)-oxime]used as tracers. The serum was extracted with benzene and the steroids were separated with a LH-20 column before the determination. The radioimmunological results were exploited by the program derived from model II of Rodbard and Lewald as in Example 1 and the statistical significance was measured by the multiple level test of Ducan-Kramer of Example 1. The results are shown in the graphs of sheets 3 to 5 of the Figures.

[2] = system: prostate and seminal vesicules; assay: Peptide in association with an antiandrogen: weight of prostate and seminal vesicles of rats (Example 4); assay type: in vivo, rats of the Sprague-Dawley strain; settings: 100 or 500 μg peptide s.c. daily plus 5 mg product A twice daily, 14 days
Experimental: The effect of the administration of D Ser (Tbu)^6 of Gly^10 LH-RH ethylamide in association with an antiandrogen was determined on groups of 9 normal rats of the Sprague-Dawley strain weighing about 250 g. The rats received for 14 days a subcutaneous administration at 9 A.M. of D Ser (Tbu)^6 of Gly^10 LH-RH ethylamide at a dose of 20, 100 or 500 μg in physiological serum and at 9 A.M. and 4 P.M. doses of 1 or 5 mg of 5,5-dimethyl-3-[4-nitro-3-trifluoromethyl-phenyl]-2,4-imidazolidinedione (product A) in solution in sesame oil containing 5% of benzyl alcohol. One group of rats received only physiological serum and one group received only product A.
The animals were killed 24 hours after the last injection and the weight of the prostate and seminal vesicules of the rats were determined.

[3] = 3rd day following peptide administration, intranasal 500 μg

In the case of `CCNC(=O)[C@@H]1CCCN1C(=O)[C@H](CCCNC(=N)N)NC(=O)[C@H](CC(C)C)NC(=O)[C@@H](COC(C)(C)C)NC(=O)[C@H](Cc1ccc(O)cc1)NC(=O)[C@H](CO)NC(=O)[C@H](Cc1c[nH]c2ccccc12)NC(=O)[C@H](Cc1c[nH]cn1)NC(=O)[C@@H]1CCC(=O)N1` [D Ser (Tbu)^6 of Gly^10 LH-RH ethylamide], the “concentration of 17-OH-progesterone relative to initial control values” [1, 3] is reported as 40%, the “concentration of testosterone relative to initial control values” [1, 3] is reported as 50% and the FSH plasmatic level ([1]; intranasal 500 μg, men) is reported as “increase”. For the same compound, the LH plasmatic level ([1]; intranasal 500 μg, men) was “increase”, the “level of testosterone/steroids on the fourth day after administration” value ([1]; listed as D Ser (Tbu)^6 or Gly^10 LH-RH ethylamide) was “returned to normal” and the “level of testosterone/steroids on the fourth day after administration” value ([1]; listed as peptide) was “return to normal levels”. The “progesterone level in cycles of post-treatment, pretreatment cycles as base of 100%” value (ovarian steroidogenosis; 12 cycles, 6 women) was 99%, the “progesterone level in cycles of treatment, pretreatment cycles as base of 100%” value (ovarian steroidogenosis; 12 cycles, 6 women) was 46% and the “level of progesterone reduced as compared to the controls” value (ovarian steroidogenosis; review of 12 cycles (sheet 5)) was 46%. The “level of seric progesterone in the 2 cycles of post-treatment” value (ovarian steroidogenosis; sheet 4) was “return to normal”, the “reduction of seric level of progesterone as compared to controls, first treatment cycle” value (ovarian steroidogenosis; typical subject (sheet 3), 500 μg intranasal at 8 A.M. and 5 P.M. on one day between 4th and 9th day after LH peak) was 13% and the “reduction of seric level of progesterone as compared to controls, second treatment cycle” value (ovarian steroidogenosis; typical subject (sheet 3), same regimen) was 34%. The “weight of the prostate” value [2] was “Similar, but a little less marked” and the “weight of the seminal vesicules” value [2] was “approached the weight of the seminal vesicules of castrated rats”.
